# Source: ChEMBL document CHEMBL3734667 (Bioorg Med Chem, 2015)
# What was measured:
# Semliki Forest virus = assay: Antiviral activity against Semliki forest virus assessed as inhibition of virus growth at 170 uM; type: functional
# Poliovirus 1 [1] = assay: Antiviral activity against Human poliovirus 1 Sabin; type: functional, organism-based; settings: Enterovirus C
# [2] = system: Respiratory syncytial virus; assay: Antiviral activity against RSV; type: functional, organism-based; settings: human respiratory syncytial virus
# [3] = Cytotoxicity against human MT4 cells assessed as cell viability after 96 hrs by MTT assay; type: cell-based
# [4] = Cytotoxicity against MDBK cells assessed as cell viability after 48 to 96 hrs by MTT assay; type: cell-based, Bos taurus; settings: cattle
# [5] = Cytotoxicity against BHK cells assessed as cell viability after 48 to 96 hrs by MTT assay; type: cell-based, Mesocricetus auratus; settings: hamster
# [6] = Cytotoxicity against african green monkey Vero 76 cells assessed as cell viability after 48 to 96 hrs by crystal violet staining method; type: cell-based; settings: chlorocebus sabaeus
# [7] = system: Bovine viral diarrhea virus 1; assay: Antiviral activity against BVDV infected in MDBK cells assessed as inhibition of virus-induced cytopathogenicity after 3 to 4 days by MTT assay; type: functional, organism-based; settings: Bovine viral diarrhea virus isolates and strains
# Yellow fever virus = assay: Antiviral activity against YFV infected in BHK-21 cells assessed as inhibition of virus-induced cytopathogenicity after 3 to 4 days by MTT assay; type: functional, organism-based
# [8] = system: Mammalian orthoreovirus 1; assay: Antiviral activity against Reo-1 virus infected in BHK-21 cells assessed as inhibition of virus-induced cytopathogenicity after 3 to 4 days by MTT assay; type: functional, cell-based; settings: Mammalian orthoreovirus 1, BHK-21
# Coxsackievirus B5 [9] = assay: Antiviral activity against human CVB5 infected in african green monkey Vero76 cells assessed as inhibition of virus-induced cytopathogenicity after 3 days by plaque reduction assay; type: functional, organism-based; settings: Enterovirus B, Vero 76, 72 h
# Human orthopneumovirus = assay: Antiviral activity against human RSV infected in african green monkey Vero76 cells assessed as inhibition of virus-induced cytopathogenicity after 5 days by plaque reduction assay; type: functional, organism-based; settings: human respiratory syncytial virus, Vero 76, 120 h
# Poliovirus 1 [10] = assay: Antiviral activity against Human poliovirus 1 Sabin infected in african green monkey Vero76 cells assessed as inhibition of virus-induced cytopathogenicity by plaque reduction assay; type: functional, organism-based; settings: Enterovirus C, Vero 76
# [11] = Selectivity index, ratio of CC50 for MDBK cells to EC50 for BVDV; set-up: species or system Bovine viral diarrhea virus 1
# [12] = Selectivity index, ratio of CC50 for BHK-21 cells to EC50 for YFV; set-up: species or system Yellow fever virus
# [13] = Selectivity index, ratio of CC50 for african green monkey Vero76 cells to EC50 for human RSV; set-up: species or system human respiratory syncytial virus, Vero 76
# [14] = Selectivity index, ratio of CC50 for african green monkey Vero76 cells to EC50 for human Sb-1; set-up: species or system Human poliovirus 1 strain Sabin, Vero 76
# [15] = system: Human immunodeficiency virus 1; assay: Antiviral activity against HIV-1 infected in MT4 cells assessed as inhibition of virus-induced cytopathogenicity after 4 days by MTT assay; type: functional, organism-based; settings: Human immunodeficiency virus 1, MT4, 96 h
# dengue virus type 2 = assay: Antiviral activity against DENV-2 infected in BHK-21 cells assessed as inhibition of virus-induced cytopathogenicity after 3 to 4 days by MTT assay; type: functional, organism-based
# [16] = Selectivity index, ratio of CC50 for BHK-21 cells to EC50 for DENV-2
# West Nile virus = assay: Antiviral activity against WNV infected in BHK-21 cells assessed as inhibition of virus-induced cytopathogenicity after 3 to 4 days by MTT assay; type: functional, organism-based
# Human alphaherpesvirus 1 = assay: Antiviral activity against HSV1; type: functional, organism-based
# [17] = system: Vesicular stomatitis virus; assay: Antiviral activity against VSV; type: functional, organism-based
# Vaccinia virus = assay: Antiviral activity against Vaccinia virus; type: functional, organism-based; settings: Orthopoxvirus vaccinia
# [18] = Inhibition of HCV helicase; set-up: species or system Hepacivirus hominis
# Influenza B virus = assay: Antiviral activity against Influenza B virus; type: functional
# Poliovirus 2 = assay: Antiviral activity against Human poliovirus 2; type: functional; settings: Enterovirus C
# [19] = Selectivity index, ratio of CC50 for african green monkey Vero76 cells to EC50 for human CVB5; set-up: species or system Coxsackievirus B5, Vero 76
# Coxsackievirus B5 [20] = assay: Ratio of NM108 EC50 to compound EC50 for human CVB5; type: functional
# Coxsackievirus B5 [21] = assay: Ratio of NM176 EC50 to compound EC50 for human CVB5; type: functional
# [22] = Selectivity index, ratio of CC50 for human MT4 cells to EC50 for HIV-1; type: toxicity, cell-based; settings: human immunodeficiency virus 1, MT4 cells; read-out: Ratio CC50/EC50
# [23] = molecular target: Peroxisome proliferator-activated receptor alpha (Homo sapiens, UniProt Q07869); assay: Agonist activity at human PPAR alpha in human HepG2 cells after 20 hrs by luciferase reporter assay; type: cell-based
# Chain of Peroxisome proliferator-activated receptor alpha (Q07869 whole entry): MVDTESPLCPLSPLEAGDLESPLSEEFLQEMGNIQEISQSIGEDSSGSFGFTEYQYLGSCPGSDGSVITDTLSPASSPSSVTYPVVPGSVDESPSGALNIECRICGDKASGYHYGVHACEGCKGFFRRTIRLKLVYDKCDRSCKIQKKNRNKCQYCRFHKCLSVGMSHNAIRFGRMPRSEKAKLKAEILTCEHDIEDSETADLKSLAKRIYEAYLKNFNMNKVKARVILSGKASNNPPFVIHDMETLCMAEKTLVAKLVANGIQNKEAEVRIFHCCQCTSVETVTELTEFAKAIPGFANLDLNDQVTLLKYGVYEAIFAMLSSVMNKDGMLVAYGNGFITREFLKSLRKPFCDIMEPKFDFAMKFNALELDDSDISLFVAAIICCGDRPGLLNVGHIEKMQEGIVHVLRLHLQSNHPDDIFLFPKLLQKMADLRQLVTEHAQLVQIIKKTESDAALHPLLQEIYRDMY
# [24] = molecular target: Peroxisome proliferator-activated receptor gamma (Homo sapiens, UniProt P37231); assay: Agonist activity at human PPAR gamma in human HepG2 cells after 20 hrs by luciferase reporter assay; type: cell-based
# Chain of Peroxisome proliferator-activated receptor gamma (P37231 whole entry): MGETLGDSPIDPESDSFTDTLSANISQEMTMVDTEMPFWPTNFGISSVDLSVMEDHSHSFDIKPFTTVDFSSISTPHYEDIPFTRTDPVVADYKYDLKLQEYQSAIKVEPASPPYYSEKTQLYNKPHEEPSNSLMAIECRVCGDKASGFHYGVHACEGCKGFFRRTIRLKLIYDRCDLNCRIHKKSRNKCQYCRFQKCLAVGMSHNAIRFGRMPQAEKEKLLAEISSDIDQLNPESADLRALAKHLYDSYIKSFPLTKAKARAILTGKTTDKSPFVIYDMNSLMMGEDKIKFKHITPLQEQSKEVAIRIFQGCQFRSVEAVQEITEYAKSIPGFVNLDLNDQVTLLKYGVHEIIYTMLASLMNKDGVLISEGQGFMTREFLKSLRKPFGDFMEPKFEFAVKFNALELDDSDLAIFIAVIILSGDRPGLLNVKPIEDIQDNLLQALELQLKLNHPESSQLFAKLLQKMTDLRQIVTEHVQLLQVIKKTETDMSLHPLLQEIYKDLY
# [25] = Selectivity index, ratio of CC50 for BHK-21 cells to EC50 for WNV; set-up: species or system West Nile virus
# Coxsackievirus B2 = assay: Antiviral activity against Human coxsackievirus B2; type: functional, organism-based; settings: Enterovirus B
Structure (SMILES),CC50 at 96 h [3],CC50 [4],CC50 [5],CC50 [6],EC50 [7],EC50 (Yellow fever virus),EC50 (Coxsackievirus B5 [9]),EC50 (Human orthopneumovirus),EC50 (Poliovirus 1 [10]),EC50 [15],EC50 [17],EC50 (Vaccinia virus),other results
O=c1[nH]c2cc(S(=O)(=O)n3nnc4cc(Cl)ccc43)ccc2o1,,,,,,,,,,,,,inhibition at 170 µM (Semliki Forest virus): 99%
CC(=O)Nc1ccc(-n2nnc3ccc(C(F)(F)F)cc32)cc1,,,,,,,,,,,,,EC50 (Poliovirus 1 [1]): 30 µM
O=c1n(Cc2nc3ccccc3n2CCCCO)c2cnccc2n1C1CC1,,,,,,,,,,,,,EC50 [2]: 0.01 µM
Oc1ccc(-n2nc3ccc(C(F)(F)F)cc3n2)cc1,≥ 100 µM,47 µM,65 µM,> 100 µM,30 µM,17 µM,> 100 µM,10 µM,80 µM,> 100 µM,> 100 µM,> 100 µM,EC50 [8]: > 100 µM; Ratio CC50/EC50 [11]: 1.57; Ratio CC50/EC50 [12]: 3.82; Ratio CC50/EC50 [13]: >10; Ratio CC50/EC50 [14]: >1.25; EC50 (dengue virus type 2): 17 µM; Ratio CC50/EC50 [16]: 3.82; EC50 (West Nile virus): > 100 µM; EC50 (Human alphaherpesvirus 1): > 100 µM
CCCn1nc2c(Br)c(Br)c(Br)c(Br)c2n1,,,,,,,,,,,,,IC50 [18]: 5.8 µM
Clc1c(Cl)c(Cl)c2[nH]nnc2c1Cl,,,,,,,,,,,,,EC75 (Influenza B virus): 3 µM; EC75 (Poliovirus 2): 8.1 µM
Clc1ccc2c(c1)nc(Cn1nnc3ccccc31)n2CC[C@@H]1CCCN2CCCC[C@H]12,,,,,,,,,,,,,EC50 [2]: 0.02 µM
Cc1ccc2nn(-c3ccc(OCCCC(C)(C)C(=O)O)cc3)nc2c1,53 µM,24 µM,17 µM,15 µM,> 100 µM,> 100 µM,0.15 µM,> 100 µM,> 100 µM,> 100 µM,> 100 µM,> 100 µM,EC50 [8]: > 100 µM; Ratio CC50/EC50 [19]: 100; Ratio EC50 (Coxsackievirus B5 [20]): 133; Ratio EC50 (Coxsackievirus B5 [21]): 200; EC50 (Human alphaherpesvirus 1): > 100 µM
CN(C)c1cccc(C(=O)OCCn2nc3ccccc3n2)c1,> 100 µM,> 100 µM,> 100 µM,> 100 µM,> 100 µM,> 100 µM,> 100 µM,> 100 µM,,56 µM,> 100 µM,> 100 µM,selectivity ratio [22]: 1.78
Cc1cc(-n2nc3ccccc3n2)cc(C)c1OC(C)(C)C(=O)O,> 100 µM,> 100 µM,> 100 µM,≥ 100 µM,> 100 µM,> 100 µM,> 100 µM,> 100 µM,> 100 µM,> 100 µM,> 100 µM,> 100 µM,EC50 [23]: 0.096 µM; EC50 [24]: 0.48 µM
Oc1ccc(-n2nc3cc(Cl)c(Cl)cc3n2)cc1,47 µM,37 µM,28 µM,50 µM,14 µM,6 µM,25 µM,8 µM,> 100 µM,> 100 µM,> 100 µM,> 100 µM,EC50 [8]: > 100 µM; Ratio CC50/EC50 [11]: 2.64; Ratio CC50/EC50 [12]: 4.67; Ratio CC50/EC50 [25]: 2.15; Ratio CC50/EC50 [19]: 2; Ratio CC50/EC50 [13]: 6.25; EC50 (dengue virus type 2): 8 µM; Ratio CC50/EC50 [16]: 3.5; EC50 (West Nile virus): 13 µM; EC50 (Human alphaherpesvirus 1): > 100 µM
OCC1OC(n2nnc3cc(Cl)c(Cl)cc32)C(O)C1O (stereo unspecified),,,,,,,,,,,,,EC75 (Influenza B virus): 750 µM; IC50 [18]: 1.5 µM
CCC(=O)Nc1ccc(-n2nc3cc(C)c(C)cc3n2)cc1,,,,,,,,,,,,,EC50 (Coxsackievirus B2): 10 µM
